{"source": "patent US10624866B2", "about": "“Composition for prevention or treatment of chronic pain comprising Evans blue” (THE INDUSTRY & ACADEMIC COOPERATION IN CHUNGNAM NATIONAL …, priority 2018, dated 2020)", "key": {"[1]": {"test_system": "animal model of SNL neuropathic pain", "test": "von Frey filament test (mechanical allodynia) in spinal nerve ligation (SNL) model of neuropathic pain", "format": "in vivo, Sprague-Dawley rats", "description": "5-week-old male SD white rats (Sprague-Dawley rats, 150 to 180 g) were purchased and were kept in an environment where each of night and day was continuously kept for 12 hours, and the temperature was maintained at 22±2° C. Further, water and feed were freely available for rats, and the rats were fed three or less per cage. At 6 weeks of age after adapted in an experimental environment for 7 days before the experiment, the rats responsive to stimulation of 8 g or more of von Frey filament were only selected, and then the spinal nerve ligation (SNL) procedure was performed thereon, inducing neuropathic pain (NPP). More specifically, after general anesthesia with respiratory anesthesia with isoflurane, the left lumbar (L6) […] was carefully removed for differentiation of the L4 and L5 spinal nerves (FIGS. 1A to 1B), and then the L5 spinal nerve was ligated with a silk suture thread (3-0), and the wound was sutured to prepare an experimental animal model of SNL neuropathic pain (FIGS. 1C to 1D). The analgesic effect of Evans blue of the present disclosure was confirmed by measuring mechanical hyperalgesia using the animal model of neuropathic pain. The von Frey filament test (test for mechanical allodynia) is a method for measuring the degree of mechanical allodynia after animal pain modeling. The rats were placed in an acrylic box disposed on a wire mesh test bench with a mesh size of 2×2 mm and adapted for at least 15 minutes. After the rats became quiet in movement, the pain threshold values (g) of the rat were evaluated using the von Frey filaments (Stoelting, USA) having a thickness of 0.4, 0.6, 1, 2, 4, 6, 8, and 15 g. […] The central part thereof was stimulated with von Frey filaments. When there was a positive reaction, stimulation was performed with weak filaments. When there was no positive reaction, stimulation was performed with strong filaments. As a result, the reduction of the pain threshold for the von Frey filament test on the seventh day after the pain model surgery was the maximum. From the seventh day when the reduction of the pain threshold for the von Frey filament test after the pain model surgery was the maximum, Evans blue (EB) was injected intrathecal injection with a Hamilton syringe, and the hind paw of the […] was stimulated with the von Frey filament to the measure minimum pain threshold. Changes in pain threshold were measured after 2 hours, 1 day, 2 days, 3 days, 5 days, and 7 days. At this time, 10 μl physiological saline was administered to the control group, and Evans blue was administered at various concentrations (5, 15, and 50 μg/10 μl)."}, "[2]": {"target": "T1, vesicular nucleotide transporter (VNUT) of the dorsal root ganglia (Rattus norvegicus, UniProt P0DX21)", "T1 construct": "examine the expression of VNUT in the dorsal root ganglia and dorsal horn of the spinal cord; from tissue; host or cells: rat dorsal root ganglia and spinal cord (L4 to L6) sections after in vivo Evans blue injection", "T1 sequence (P0DX21 1-447)": "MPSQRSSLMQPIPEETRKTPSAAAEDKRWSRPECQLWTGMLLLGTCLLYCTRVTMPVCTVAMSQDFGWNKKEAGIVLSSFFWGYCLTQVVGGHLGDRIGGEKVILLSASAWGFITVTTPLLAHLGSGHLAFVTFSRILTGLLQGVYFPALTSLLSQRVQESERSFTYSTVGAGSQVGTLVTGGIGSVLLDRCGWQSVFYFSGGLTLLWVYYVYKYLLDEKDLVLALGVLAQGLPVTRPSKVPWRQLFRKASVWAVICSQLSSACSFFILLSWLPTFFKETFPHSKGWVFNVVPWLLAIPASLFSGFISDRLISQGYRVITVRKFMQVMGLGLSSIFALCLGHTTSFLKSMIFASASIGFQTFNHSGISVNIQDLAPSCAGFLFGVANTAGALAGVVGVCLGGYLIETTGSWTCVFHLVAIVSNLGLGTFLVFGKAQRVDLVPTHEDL", "test": "Immunostaining with VNUT antibody after in vivo Evans blue injection, confocal microscopy", "design": "species or system white rat", "conditions": "dorsal root ganglia: axon, axon terminal and cell body; 2nd day after injection (FIGS. 4A to 4C)", "description": "To verify targeting VNUT of the dorsal root ganglia and dorsal horn of the spinal cord by Evans blue in vivo, VNUT was immune-stained, and Evans blue was administered in vivo to confirm whether it was targeted.\n(§1) Specifically, it was immune-stained with VNUT antibody (green) to examine the expression of VNUT in the dorsal root ganglia and dorsal horn of the spinal cord. Evans blue was injected on the 7th day after the pain model surgery. On 2nd day after the injection of Evans blue, the white rat was anesthetized by intraperitoneal injection of sodium pentobarbital (100 mg/Kg). Then the phosphate buffer solution (PBS, pH 7.4) was intracardiac-perfused to entirely remove the blood, followed by perfusion with 4% paraformaldehyde to fix the result. Then, the spinal cord sites (L4 to L6) were carefully taken out, post-fixed in the same fixative overnight, and immersed in a 30% sucrose solution. Then, the tissues obtained by frozen sectioning of the spinal cord at […] were subjected to the normal serum blocking and then incubated overnight at 4° C. with VNUT (1:500; ABN 83; milipore) antibody. The next day, the result was washed with PBS and incubated with the cy2-conjugated secondary antibody (1:400) for 2 hours, and then the nuclear thereof was stained with DAPI. The tissues were attached to a slide glass and photographed using a confocal microscope (Leica, TCS SP8)."}, "[3]": {"test_system": "microglia cells present in the dorsal horn of the spinal cord", "test": "Iba-1 immunostaining of spinal cord tissue injected with Evans blue", "format": "in vivo, white rat", "conditions": "laminas I to III (FIGS. 6A to 6C)"}, "[4]": {"test_system": "excitatory neurons located in the dorsal horn of the spinal cord", "test": "vGluT2 immunostaining of spinal cord tissue injected with Evans blue", "format": "in vivo, white rat", "conditions": "dorsal horn laminas I and II (FIGS. 5D to 5F)"}, "[5]": {"test_system": "inhibitory neurons distributed in laminas I and II", "test": "Calretinin immunostaining of spinal cord tissue injected with Evans blue", "format": "in vivo, white rat", "conditions": "laminas I and II (FIG. 4G, FIGS. 5G to 5I)"}, "[6]": {"test_system": "neurons of the dorsal horn in the spinal cord", "test": "NeuN immunostaining of spinal cord tissue injected with Evans blue", "format": "in vivo, white rat", "conditions": "dorsal horn of the spinal cord (FIGS. 5A to 5C)", "description": "as §1\nTo determine whether Evans Blue targeted the neurons of the dorsal horn in the spinal cord, the spinal cord tissue injected with Evans blue was stained with NeuN, a marker for identifying neurons. […]"}, "astrocytes": {"test_system": "astrocytes", "test": "GFAP immunostaining of spinal cord tissue injected with Evans blue", "format": "in vivo, white rat", "conditions": "FIGS. 6D to 6F"}}, "data": [{"smiles": "Cc1cc(-c2ccc(/N=N/c3ccc4c(S(=O)(=O)O)cc(S(=O)(=O)O)c(N)c4c3O)c(C)c2)ccc1/N=N/c1ccc2c(S(=O)(=O)O)cc(S(=O)(=O)O)c(N)c2c1O", "note": "[Evans blue]", "values": [{"measurement": "intensity of pain (pain threshold) than before Evans blue treatment (0D)", "setting": "[1]; 5 μg intrathecal, on the 2nd and 3rd day (p<0.05)", "result": "significant increase"}, {"measurement": "intensity of pain (pain threshold) than before Evans blue treatment (0D)", "setting": "[1]; 15 μg intrathecal, after 2 hours and the 1st day (p<0.05)", "result": "significant increase"}, {"measurement": "intensity of pain (pain threshold) than before Evans blue treatment (0D)", "setting": "[1]; 50 μg intrathecal, after 2 hours and the 1st day (p<0.01), the 2nd day (p<0.001), the 3rd day, the 5th day (p<0.05)", "result": "significant increase"}, {"measurement": "intensity of pain (pain threshold) compared to the control group treated with physiological saline", "setting": "[1]; 50 μg intrathecal, on the 2nd day (p<0.001)", "result": "significant increase"}, {"measurement": "analgesic effect on pain (pain threshold, von Frey filament test)", "setting": "[1]; SNL rats, intrathecal injection on day 7 after surgery, 5, 15 and 50 μg/10 μl, versus control group treated only with physiological saline", "result": "overall increased meaningfully"}, {"measurement": "time of peak analgesic effect", "setting": "[1]; after intrathecal injection, gradually decreased thereafter", "result": 3, "unit": "days"}, {"measurement": "overlap of Evans blue signal with VNUT expression", "setting": "[2]", "result": "overlaps"}, {"measurement": "overlap of Iba-1 (microglial cell marker) signal with Evans blue signal", "setting": "[3]", "result": "partially overlapped"}, {"measurement": "targeting of excitatory neurons (vGluT2 stained around cell bodies of neurons targeted by Evans blue)", "setting": "[4]", "result": "targeted excitatory neurons"}, {"measurement": "overlap of calretinin (inhibitory neurons) with Evans blue", "setting": "[5]", "result": "did not overlap"}, {"measurement": "overlap of NeuN (neuron marker) signals with Evans blue", "setting": "[6]", "result": "most signals of NeuN, which is a neuron marker, overlapped"}, {"measurement": "overlap of GFAP (astrocyte marker) signal with Evans blue", "setting": "astrocytes", "result": "did not overlap"}]}]}
